“And” between values parts separate entries of the source, which are not always exact repeats. Identical values can stand only once. Toxic doses and inconclusive results are not listed.
System: P388 leukemia ip, CD2F1 mice, survival T/C
Assay: NCI In Vivo Anticancer Drug Screen. Data for tumor model P388 Leukemia (intraperitoneal) in CD2F1 (CDF1) mice
Conditions: endpoint: median survival time, higher = longer survival
Method in brief: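 Mice carrying the transplanted tumor received test compound or vehicle. Survival was recorded in each group, and the value is the treated-group measurement divided by that of the vehicle-treated control group.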

[1] = dose: 25.0 mg/kg/injection, schedule: Q01DX009 (ip), vehicle: saline with Tween-80
[2] = dose: 50.0 mg/kg/injection, schedule: Q01DX009 (ip), vehicle: saline with Tween-80
[3] = dose: 100.0 mg/kg/injection, schedule: Q01DX009 (ip), vehicle: saline with Tween-80
[4] = dose: 100.0 mg/kg/injection, schedule: Q01DX009 (ip), vehicle: Klucel (hydroxypropylcellulose) (HPC)
[5] = dose: 200.0 mg/kg/injection, schedule: Q01DX009 (ip), vehicle: saline with Tween-80

## CC(=S)SC1(C)SC(C)(SC(C)=S)S1 (stereo not drawn)
[1]
  T/C: 91 % of control
[2]
  T/C: 94 % of control
[3]
  T/C: 94 % of control

## CS1(=O)=NC(=NC#N)c2ccccc21 (stereo not drawn)
dose: 50.0 mg/kg/injection, schedule: Q01DX009 (ip), vehicle: Klucel (hydroxypropylcellulose) (HPC)
  T/C: 101 % of control
[4]
  T/C: 94 % of control

## CC1(C=O)CCCC2(C)[C@@H]1CCC13CC(CO)C(CC[C@H]12)C3 (stereo partly drawn)
dose: 1.63 mg/kg/injection, schedule: Q01DX005 (ip), vehicle: Klucel (hydroxypropylcellulose) (HPC)
  T/C: 86 % of control
dose: 3.25 mg/kg/injection, schedule: Q01DX005 (ip), vehicle: Klucel (hydroxypropylcellulose) (HPC)
  T/C: 88 % of control

## COc1cc2cc[n+]3c(C)c4ccc(OC)c(OC)c4cc3c2cc1OC (tested in a mixture with another compound)
dose: 20.0 mg/kg/injection, schedule: Q01DX009 (ip), vehicle: saline
  T/C: 150 % of control
dose: 40.0 mg/kg/injection, schedule: Q01DX009 (ip), vehicle: saline
  T/C: 154 % of control and 166 % of control

## Cc1ccc(S(=O)(=O)N(C=O)c2ccccc2)cc1
[2]
  T/C: 90 % of control
[3]
  T/C: 90 % of control

## O=C(NC(=S)Nc1ncn[nH]1)c1ccc(Cl)c(Cl)c1
dose: 12.5 mg/kg/injection, schedule: Q01DX009 (ip), vehicle: saline with Tween-80
  T/C: 104 % of control
[1]
  T/C: 100 % of control
[2]
  T/C: 95 % of control
[3]
  T/C: 91 % of control
[5]
  T/C: 92 % of control

## N#CNC1=NC(c2ccccc2O)CC(=O)N1 (stereo not drawn)
dose: 100.0 mg/kg/injection, schedule: Q04DX003 (ip), vehicle: suspension in saline
  T/C: 98 % of control
dose: 200.0 mg/kg/injection, schedule: Q04DX003 (ip), vehicle: suspension in saline
  T/C: 105 % of control
dose: 400.0 mg/kg/injection, schedule: Q04DX003 (ip), vehicle: suspension in saline
  T/C: 100 % of control

## O=Cc1ncccc1[N+](=O)[O-]
dose: 50.0 mg/kg/injection, schedule: Q01DX009 (ip), vehicle: saline + Tween-80 + alcohol
  T/C: 116 % of control
dose: 100.0 mg/kg/injection, schedule: Q01DX009 (ip), vehicle: saline + Tween-80 + alcohol
  T/C: 115 % of control

## O=C(NC(=S)Nc1ccc(CCO)cc1)c1cccc(Br)c1
dose: 3.75 mg/kg/injection, schedule: Q01DX005 (ip), vehicle: saline with Tween-80
  T/C: 91 % of control
dose: 7.5 mg/kg/injection, schedule: Q01DX005 (ip), vehicle: saline with Tween-80
  T/C: 90 % of control
dose: 15.0 mg/kg/injection, schedule: Q01DX005 (ip), vehicle: saline with Tween-80
  T/C: 87 % of control
dose: 240.0 mg/kg/injection, schedule: Q01DX005 (ip), vehicle: saline with Tween-80
  T/C: 92 % of control

## Oc1c(Cl)c(Cl)c(O)c(Cl)c1Cl
dose: 6.25 mg/kg/injection, schedule: Q04DX003 (ip), vehicle: Klucel (hydroxypropylcellulose) (HPC)
  T/C: 98 % of control
dose: 12.5 mg/kg/injection, schedule: Q04DX003 (ip), vehicle: Klucel (hydroxypropylcellulose) (HPC)
  T/C: 99 % of control
dose: 25.0 mg/kg/injection, schedule: Q04DX003 (ip), vehicle: Klucel (hydroxypropylcellulose) (HPC)
  T/C: 98 % of control

## CC(C)Oc1ccc(C(=O)NS(=O)(=O)c2ccc(N=CC3C(=O)N(c4ccccc4)N(c4ccccc4)C3=O)cc2)cc1
[4]
  T/C: 92 % of control
dose: 200.0 mg/kg/injection, schedule: Q01DX009 (ip), vehicle: Klucel (hydroxypropylcellulose) (HPC)
  T/C: 86 % of control

## CCCCC[C@@H]1CCCC2C1CCC(CCCCCO)N2C(=O)OCC(Cl)(Cl)Cl (stereo partly drawn)
dose: 50.0 mg/kg/injection, schedule: Q01DX005 (ip), vehicle: saline with Tween-80
  T/C: 100 % of control
dose: 100.0 mg/kg/injection, schedule: Q01DX005 (ip), vehicle: saline with Tween-80
  T/C: 106 % of control
dose: 200.0 mg/kg/injection, schedule: Q01DX005 (ip), vehicle: saline with Tween-80
  T/C: 100 % of control

## N#CC1=C(C#N)CC2C(C1)OC1CC(C#N)=C(C#N)CC12 (stereo not drawn)
dose: 50.0 mg/kg/injection, schedule: Q01DX009 (ip), vehicle: saline
  T/C: 100 % of control
dose: 100.0 mg/kg/injection, schedule: Q01DX009 (ip), vehicle: saline
  T/C: 101 % of control
dose: 200.0 mg/kg/injection, schedule: Q01DX009 (ip), vehicle: saline
  T/C: 100 % of control

## CCC1(CCC(C)C)C(=O)N(CCCl)C(=O)N(CCCl)C1=O
[2]
  T/C: 100 % of control
[3]
  T/C: 105 % of control
[5]
  T/C: 96 % of control

## Cc1cc(=O)[nH]c2[nH][nH]c(=O)c12
[1]
  T/C: 93 % of control
[2]
  T/C: 93 % of control
[3]
  T/C: 105 % of control
[5]
  T/C: 90 % of control

## CS(=O)CSCC(N)C(=O)O (stereo not drawn)
dose: 25.0 mg/kg/injection, schedule: Q01DX009 (ip), vehicle: water
  T/C: 91 % of control
dose: 50.0 mg/kg/injection, schedule: Q01DX009 (ip), vehicle: water
  T/C: 100 % of control
dose: 100.0 mg/kg/injection, schedule: Q01DX009 (ip), vehicle: water
  T/C: 93 % of control
dose: 200.0 mg/kg/injection, schedule: Q01DX009 (ip), vehicle: water
  T/C: 99 % of control
dose: 400.0 mg/kg/injection, schedule: Q01DX009 (ip), vehicle: water
  T/C: 96 % of control

From PubChem BioAssay AID330 (DTP/NCI, 2004)
